Drawing on patent publication US20110028503A1, “COMPOSITIONS AND METHODS FOR INHIBITION OF THE JAK PATHWAY” (RIGEL PHARMACEUTICALS, INC., priority 2009, published 2011), this text covers IC50 for one molecule.

Holding throughout (format): cell-based
The test system of assay [1] is human Ramos B cells stimulated with human IL-4 (JAK1 and JAK3 kinases, CD23 upregulation). In words: Ramos B-cell line stimulated with IL-4 (CD23 upregulation, FACS). To be noted: IL-4 50 units/mL, 20-24 hours, anti-CD23-PE FACS, read-out: Example 3 IC50 (Ramos B-cell line stimulated with IL-4, CD23). How it is done: One means of assaying for JAK inhibition is detection of the effect of compounds I and II on the upregulation of downstream gene products. In the Ramos/IL4 assay, B-cells are stimulated with the cytokine Interleukin-4 (IL-4) leading to the activation of the JAK/Stat pathway through phosphorylation of the JAK family kinases, JAK1 and JAK3, which in turn phosphorylate and activate the transcription factor Stat-6. […] Twenty to 24 hours post stimulation, cells are stained for upregulation of CD23 and analyzed using flow cytometry (FACS). […] An exemplary assay of this type is described in greater detail below. B-cells stimulated with cytokine Interleukin-4 (IL-4) activate the JAK/Stat pathway through phosphorylation of the JAK family kinases, JAK-1 and JAK-3, which in turn phosphorylate and activate the transcription factor Stat-6. […] To study the effect of inhibitors on the JAK family kinases, human Ramos B cells are stimulated with human IL-4. The Ramos B-cell line was acquired from [NT] No. CRL-1596). The cells were cultured in RPMI 1640 (Cellgro, MediaTech, Inc., Herndon, Va., Cat No. 10-040-CM) with 10% fetal bovine serum (FBS), heat inactivated (JRH Biosciences, Inc, Lenexa, Kans., Cat No. 12106-500M) according to ATCC propagation protocol. […] Cells were then spun down and stained with anti-CD23-PE(BD Pharmingen, San Diego, Calif., Cat No. 555711) and analyzed by FACS. […]

Assay [2] concerns primary human T-cells (IL-2 stimulated proliferation; JAK1 and JAK3). In words: Primary human T-cell proliferation assay stimulated with IL-2. To be noted: IL-2, 72 hours, CellTiter-Glo ATP readout, read-out: Example 4 IC50 (primary human T-cell proliferation stimulated with IL-2). The text has this:
In this assay, primary human T-cells derived from peripheral blood and pre-activated through stimulation of the T-cell receptor and CD28, proliferate in culture in response to the cytokine Interleukin-2 (IL-2). This proliferative response is dependent on the activation of JAK1 and JAK3 tyrosine kinases, which phosphorylate and activate the transcription factor Stat-5. […] A reduction in cell proliferation compared to control conditions is indicative of inhibition of the JAK kinase pathway. An exemplary assay of this type is described in greater detail below.
Primary human T-cells derived from peripheral blood and pre-activated through stimulation of the T-cell receptor and CD28, proliferate in vitro in response to the cytokine Interleukin-2 (IL-2). This proliferative response is dependent on the activation of JAK-1 and JAK-3 tyrosine kinases, which phosphorylate and activate the transcription factor Stat-5.
Human primary T cells were prepared as follows. […] The lymphocytes at the serum: ficoll interface were recovered and washed twice with 5 volumes of PBS. […]
Proliferation was measured using CellTiter-Glo® Luminescent Cell Viability Assay (Promega), which determines the number of viable cells in culture based on quantitation of the ATP present, as an indicator of metabolically active cells. […]
For orientation: ATP-based viability assays read luminescence as a measure of living cells.

Assay [3] has as its system U937 human monocytic cells stimulated with IFNγ (ICAM-1 up-regulation, JAK/Stat pathway). Briefly: U937 IFNγ ICAM1 FACS assay. As to conditions: U-937, IFNγ 10 ng/mL, 18-24 hours, ICAM-1 FACS, read-out: Example 6 IC50 (U937 IFNγ ICAM1 FACS assay). On the procedure: U937 human monocytic cells up-regulate ICAM-1 (CD54) surface expression in response to a variety of different stimuli. Therefore, using ICAM-1 expression as readout, compound effects on different signaling pathways can be assessed in the same cell type. IFNγ up-regulates ICAM-1 through activation of the JAK/Stat pathway. In this example, the up-regulation of ICAM-1 by IFNγ was assessed.
U937 cells were grown in 10% RPMI. The cells were then plated at a concentration of 100,000 cells per 160 μL in 96 well flat bottom plates. […] Then 4 μL of test compound was transferred to 76 μL of 10% RPMI resulting in a 10× solution (100 μM test compound, 5% DMSO). For control wells, 4 μL of DMSO was diluted into 76 μL 10% RPMI.
The assay was performed in duplicate with 8 points (8 3-fold dilution concentrations from […]) and with 4 wells of DMSO only (control wells) under stimulated conditions and 4 wells of DMSO only under unstimulated conditions.
The diluted compound plate was mixed 2× using a multimek (Beckman Coulter of Brea, Calif.) and then 20 μL of the diluted compounds was transferred to the 96 well plate containing 160 μL of cells, which were then mixed again twice at low speeds. The cells and compounds were then pre-incubated for 30 minutes at 37° C. with 5% CO2. […]
Both % live cells and ICAM-1 expression was analyzed. […]

In the case of `C#CCOc1ccc(Nc2nc(Nc3ccc(C)c(S(N)(=O)=O)c3)ncc2F)cc1` [Compound I, N2-(3-Aminosulfonyl-4-methylphenyl)-5-fluoro-N4-[4-(prop-2-ynyloxy)phenyl]-2,4-pyrimidinediamine], the values for the IC50 in assay [1], in assay [2] and in assay [3] were 56 nM, 181 nM and 565 nM, respectively.
